Laboratory results reported in patent publication US5998420A, “Method for treating Mycobacterium tuberculosis” (priority 1996, dated 1999).
In brackets after ≈: the same amount, converted by molar mass. Read-outs that look alike come from different tables or passages of the source.

Experiments:
[1] = tested on: Mycobacterium tuberculosis strain RC1; assay: MIC by agar dilution, M. tuberculosis strain RC1; type: cell-based; conditions: for MIC: Mycobacterium tuberculosis, RC1; for effect of LIV addition on toxicity, strain RC1: strain RC1, LIV added
[2] = tested on: E. coli ketol-acid reductoisomerase; conditions: cited from earlier work
[3] = tested on: ketol-acid reductoisomerase from carrot (plant); conditions: cited from earlier work
[4] = tested on: ketol-acid reductoisomerase from Klebsiella pneumoniae; conditions: cited from earlier work
[5] = tested on: ketol-acid reductoisomerase; conditions: cited from earlier work
E. coli = conditions: minimal media; cited from earlier work
K. pneumoniae = conditions: cited from earlier work
carrot cells = conditions: branched chain amino acids; cited from earlier work
[6] = tested on: Mycobacterium tuberculosis; conditions: Heifets L. B. (1994); cited from earlier work
[7] = tested on: Mycobacterium tuberculosis; conditions: cited from earlier work; for change in final colony forming units vs starting: Klemens et al., 1994
[8] = tested on: yeast isopropylmalate isomerase; conditions: cited from earlier work; for inhibition of yeast isopropylmalate isomerase, 19 vs 21: fully ionized, nitronate forms
plants = conditions: leucine alone; cited from earlier work
[9] = cited from earlier work; for decomposition (retro-aldol): in the presence of divalent metals, unpublished observation
[10] = tested on: Mycobacterium tuberculosis strain ATCC35801; assay: MIC by agar dilution, M. tuberculosis strain ATCC35801; type: cell-based; conditions: for MIC: Mycobacterium tuberculosis, ATCC35801; for effect of LIV addition on toxicity, strain ATCC35801: strain ATCC35801, LIV added
[11] = tested on: E. coli ketol-acid reductoisomerase; conditions: presence of Mg2+ and NADPH; read-out: overall dissociation constant; cited from earlier work
[12] = tested on: acetolactate synthase from E. coli; conditions: 1 mM; cited from earlier work
[13] = tested on: dihydroxy acid dehydratase from E. coli; conditions: 1 mM; cited from earlier work
yeast = conditions: minimal media; cited from earlier work
[14] = tested on: Mycobacterium tuberculosis strain ATCC35801; assay: Tuberculosis mouse model study, colony forming units in lungs and spleens; type: in vivo, mice
[15] = type: in vivo, CD-1 female mice; conditions: 500 mg/kg body weight subcutaneous each day for 30 days
Method: To determine if high doses of sulfometuron methyl would be toxic to mice, a 20 mg/ml solution of this compound was prepared in phosphate buffered saline and 0.5 ml of this was injected subcutaneously into 4 day-old CD-1 female mice each day for 30 days. This dose corresponded to 500 mg sulfometuron methyl/kg body weight of the mouse. After the 30-day course of treatment the mice were sacrificed and the internal organs were examined by a veterinarian trained in laboratory animal care. The organs were compared to a control group that received injections of phosphate buffered saline.

[16] = no branched chain amino acids (-LIV), read-out: MIC -LIV, strain RC1
[17] = leucine, isoleucine, and valine added (+LIV), read-out: MIC +LIV, strain RC1
[18] = leucine, isoleucine, and valine added (+LIV)
[19] = no branched chain amino acids (-LIV)

For `CP(C)(=O)C(O)C(=O)O` (centres unmarked) [Hoe 704, 2-dimethylphosphinoyl-2-hydroxy acetic acid], which MIC [1, 16] is on record?
Its MIC is over 37 µg/mL.

What about the “inhibition of E. coli ketol-acid reductoisomerase” value ([2]; Hoe 704) of the same compound?
The value was “potent and selective inhibitor”.

What about the “inhibition of carrot ketol-acid reductoisomerase” value [3] of the same compound?
Its value is “potent and selective inhibitor”.

And the “inhibition of Klebsiella pneumoniae ketol-acid reductoisomerase” value [4]?
The value was “potent and selective inhibitor”.

What about the “inhibition of ketol-acid reductoisomerase” value [5] of the same compound?
The value was “potent inhibitors”.

What about the “growth inhibition of E. coli” value (E. coli) of the same compound?
Its value is “does not inhibit the growth”.

And the “reversal of growth inhibitory effect on K. pneumoniae” value (K. pneumoniae; branched chain amino acids and pantoate)?
Its value is “requires both branched chain amino acids and pantoate”.

What about the “growth of K. pneumoniae” value (K. pneumoniae) of the same compound?
Its value is “does inhibit the growth”.

What about the “reversal of effect on carrot cells in culture” value (carrot cells) of the same compound?
The value was “can be reversed by branched chain amino acids alone”.

For `[H]/N=C(/N)N[C@H]1[C@H](O)[C@@H](O)[C@H](O[C@@H]2O[C@@H](C)[C@](O)(C=O)[C@H]2O[C@@H]2O[C@@H](CO)[C@H](O)[C@@H](O)[C@@H]2NC)[C@@H](N/C(N)=N\[H])[C@@H]1O` [Streptomycin], which “MIC of first-line anti-tuberculosis drugs” value [6] is on record?
Its value is 3 µg/mL.

What does the source list for `CO[C@H]1/C=C/O[C@@]2(C)Oc3c(C)c(O)c4c(O)c(c(/C=N/N5CCN(C)CC5)c(O)c4c3C2=O)NC(=O)/C(C)=C\C=C\[C@H](C)[C@H](O)[C@@H](C)[C@@H](O)[C@@H](C)[C@H](OC(C)=O)[C@@H]1C` [Rifampicin]?
MIC of first-line anti-tuberculosis drugs [6]: 0.5 µg/mL; change in final colony forming units vs starting [7]: caused a decrease

Which “inhibition of yeast isopropylmalate isomerase, 19 vs 21” value [8] does the source give for `O=C(O)C1(O)CCCC1[N+](=O)[O-]` (centres unmarked) [Compound 21] here?
The value was “comparable”.

And the “inhibition of isopropylmalate isomerase, 21 vs 19” value ([8]; physiological conditions (pH 7))?
Its value is “much more potent inhibitor than 19”.

What about the “reversal of herbicidal activity” value (plants) of the same compound?
Its value is “reversed by leucine alone”.

And the “stability of the molecule” value ([9]; cyclopentane ring of 21)?
The value was “insures stability of the molecule”.

What does the source list for `CC(C)N(O)C(=O)C(=O)O` [IpOHA, N-Isopropyloxayl hydroxamate]?
MIC [1, 17]: 9.2 µg/mL (≈ 62.5 µM); MIC [1, 16]: 9.2 µg/mL (≈ 62.5 µM); effect of LIV addition on toxicity, strain RC1 [1]: did not reverse the toxic effects; MIC [10, 18]: > 18 µg/mL; MIC [10, 19]: 18 µg/mL (≈ 122 µM); effect of LIV addition on toxicity, strain ATCC35801 [10]: decreased the toxicity; Kd [11]: 0.02 nM; inhibition of ketol-acid reductoisomerase [5]: potent inhibitors; effect on acetolactate synthase [12]: no effect; effect on dihydroxy acid dehydratase [13]: no effect

Which results are given for `NNC(=O)c1ccncc1` [Isoniazid]?
MIC of first-line anti-tuberculosis drugs [6]: 0.2 µg/mL; Mycobacterium tuberculosis in spleens and lungs of mice ([7]; 25 mg/kg (Lalande et al., 1993)): significantly reduced; change in final colony forming units vs starting [7]: caused a decrease

Which results are given for `CC(C)C(O)(C[N+](=O)[O-])C(=O)O` (centres unmarked) [Compound 20]?
inhibition of yeast isopropylmalate isomerase [8]: potent inhibitors; growth of yeast (yeast): no affect; decomposition (retro-aldol) [9]: rapid rate

Which results are given for `CC(C)C(C(O)C(=O)O)[N+](=O)[O-]` (centres unmarked) [Compound 19]?
inhibition of yeast isopropylmalate isomerase [8]: potent inhibitors; inhibition of yeast isopropylmalate isomerase, 19 vs 21 [8]: comparable; growth of yeast (yeast): no affect; decomposition (retro-aldol) [9]: rapid rate

For `O=C(O)C(=O)N(O)Cc1ccccc1` [Compound 13], which “association rate for the inhibitor, benzyl (13) vs hydrogen (9) on nitrogen” value ([2]; relative to 9) is on record?
Its value is “increased the association rate for the inhibitor modestly”.

For `CC[C@@H](CO)NCCN[C@@H](CC)CO` [Ethambutol], which “MIC of first-line anti-tuberculosis drugs” value [6] is on record?
Its value is 2 µg/mL.

What about the “change in final colony forming units vs starting” value [7] of the same compound?
The value was “did not cause a decrease”.

With `CCCCCCCCCCCCN(O)C(=O)C(=O)O` [Compound 14] as the compound, how does the “potency relative to 13” value ([2]; 12-carbon chain on nitrogen, Aulabaugh & Schloss, unpublished) read?
Its value is “comparable in potency to 13”.

Which results are given for `COc1nc(C)nc(NC(=O)NS(=O)(=O)c2ccccc2Cl)n1` [Chlorsulfuron]?
MIC [1, 17]: > 35 µg/mL; MIC [1, 16]: 4.4 µg/mL (≈ 12.3 µM); effect of LIV addition on toxicity, strain RC1 [1]: completely reversed the effects

Which results are given for `NC(=O)c1cnccn1` [Pyrazinamide]?
MIC of first-line anti-tuberculosis drugs [6]: 16 µg/mL; change in final colony forming units vs starting [7]: did not cause a decrease

With `COC(=O)c1ccccc1S(=O)(=O)NC(=O)Nc1nc(C)cc(C)n1` [SM, sulfometuron methyl] as the compound, how does the MIC [1, 17] read?
The MIC was 1.8 µg/mL (≈ 4.94 µM).

What about the MIC [1, 16] of the same compound?
Its MIC is 0.3 µg/mL (≈ 0.823 µM).

And the MIC ([1]; read-out: minimum inhibitory concentration, medium supplemented with bovine serum albumin)?
The MIC was 4.4 µg/mL (≈ 12.1 µM).

What about the MIC ([1]; read-out: minimum inhibitory concentration, medium supplemented with sodium oleate and bovine serum albumin) of the same compound?
Its MIC is 2.2 µg/mL (≈ 6.04 µM).

What about the “effect of LIV addition on toxicity, strain RC1” value [1] of the same compound?
The value was “partially reduced the toxicity”.

What about the “effect of isoleucine and valine addition on inhibition” value ([1]; strain RC1, isoleucine and valine added) of the same compound?
Its value is “did not prevent inhibition”.

What about the MIC [10, 18] of the same compound?
The MIC was over 3.6 µg/mL.

And the MIC [10, 19]?
Its MIC is 3.6 µg/mL (≈ 9.88 µM).

And the “effect of LIV addition on toxicity, strain ATCC35801” value [10]?
Its value is “prevented the toxicity”.

What about the “Mann-Whitney U test, 2-tailed P, lungs” value ([14]; 20 mg/kg and 100 mg SM/kg) of the same compound?
The value was 0.31.

And the “Mann-Whitney U test, 2-tailed P, lungs” value ([14]; 20 mg/kg and 500 mg SM/kg)?
Its value is 0.002.

And the “Mann-Whitney U test, 2-tailed P, lungs” value ([14]; 100 mg/kg and 500 mg SM/kg)?
Its value is 0.009.

What about the “mice with more than 200 colony forming units in the lungs” value ([14]; 500 mg sulfometuron methyl/kg, lungs, 31 days) of the same compound?
Its value is “none”.

And the “mice with more than 10^3 colony forming units/spleen, 500 mg/kg” value ([14]; 500 mg sulfometuron methyl/kg, spleen)?
Its value is 13%.

What about the “growth of Mycobacterium tuberculosis in the lungs” value ([14]; 500 mg/kg body weight) of the same compound?
Its value is “significantly reduced growth”.

What about the “Mann-Whitney U test, 2-tailed P, lungs” value ([14]; PBS and 20 mg SM/kg) of the same compound?
Its value is 0.39.

What about the “Mann-Whitney U test, 2-tailed P, lungs” value ([14]; PBS and 100 mg SM/kg) of the same compound?
Its value is 0.65.

What about the “Mann-Whitney U test, 2-tailed P, lungs” value ([14]; PBS and 500 mg SM/kg) of the same compound?
Its value is 0.03.

And the “growth of Mycobacterium tuberculosis in a mouse model system” value ([14]; mouse, in vivo)?
The value was “inhibites growth”.

And the “Kruskal-Wallis test, P, spleen” value ([14]; overall difference between four groups, spleen, P < 0.05 considered significant)?
The value was over 0.05.

What about the “mice with more than 10^3 colony forming units in the lungs” value ([14]; pooled groups PBS, 20 mg/kg and 100 mg/kg SM, lungs, 31 days) of the same compound?
The value was 65%.

What about the “mice with over 10^3 colony forming units/spleen, pooled groups” value ([14]; pooled groups PBS, 20 mg/kg and 100 mg/kg SM, spleen) of the same compound?
The value was 52%.

And the “behavior of the mice and condition of the internal organs vs PBS” value [15]?
The value was “No significant differences”.
